Measurements reported in patent US20220363665A1, “QUINOLINE COMPOUNDS FOR THE TREATMENT OF AUTOIMMUNE DISEASE” (Hoffmann-La Roche Inc., priority 2019, published 2022).
pIC50: −log10 of the molar value.

Biological target: T1, human TLR8 (Homo sapiens, UniProt Q9NR97)
T1 construct: host or cells: HEK293 (HEK-Blue hTLR8)
T1 sequence (Q9NR97 27-1041): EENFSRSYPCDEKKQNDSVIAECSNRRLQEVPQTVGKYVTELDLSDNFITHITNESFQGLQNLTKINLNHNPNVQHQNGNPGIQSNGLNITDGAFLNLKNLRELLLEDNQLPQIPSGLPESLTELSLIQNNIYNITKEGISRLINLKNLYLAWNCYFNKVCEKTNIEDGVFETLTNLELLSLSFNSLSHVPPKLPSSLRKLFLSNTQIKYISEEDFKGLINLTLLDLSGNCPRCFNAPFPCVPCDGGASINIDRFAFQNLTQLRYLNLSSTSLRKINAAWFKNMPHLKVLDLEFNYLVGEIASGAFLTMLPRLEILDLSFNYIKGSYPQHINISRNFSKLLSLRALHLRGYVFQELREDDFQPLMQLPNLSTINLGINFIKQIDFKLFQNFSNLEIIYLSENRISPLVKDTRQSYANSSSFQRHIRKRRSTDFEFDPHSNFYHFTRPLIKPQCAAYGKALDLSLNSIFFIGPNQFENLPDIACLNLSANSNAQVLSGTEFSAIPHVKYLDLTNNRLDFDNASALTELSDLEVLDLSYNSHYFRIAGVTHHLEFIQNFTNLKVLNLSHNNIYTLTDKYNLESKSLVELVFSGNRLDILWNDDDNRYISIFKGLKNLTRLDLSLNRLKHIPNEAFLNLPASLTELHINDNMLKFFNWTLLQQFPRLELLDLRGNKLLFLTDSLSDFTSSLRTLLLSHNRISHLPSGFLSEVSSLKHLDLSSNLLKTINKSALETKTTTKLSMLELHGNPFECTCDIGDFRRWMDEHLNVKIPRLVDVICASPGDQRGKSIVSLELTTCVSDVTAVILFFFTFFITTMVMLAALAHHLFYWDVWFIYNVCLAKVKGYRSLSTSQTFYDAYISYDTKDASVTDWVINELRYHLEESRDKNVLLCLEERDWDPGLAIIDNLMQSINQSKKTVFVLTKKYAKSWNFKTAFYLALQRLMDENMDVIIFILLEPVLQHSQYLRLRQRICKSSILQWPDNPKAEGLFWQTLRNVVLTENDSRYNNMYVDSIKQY
Assay: HEK293-Blue-hTLR-8 cells assay (SEAP reporter, R848 stimulation)
Assay type: cell-based
Settings: HEK293-Blue-hTLR8 cells, R848, 20 hrs
Protocol: The following tests were carried out in order to determine the activity of the compounds of formula (I) in HEK293-Blue-hTLR-7/8/9 cells assay.
HEK293-Blue-hTLR-8 Cells Assay:
A stable HEK293-Blue-hTLR-8 cell line was purchased from InvivoGen (Cat. #: hkb-htlr8, San Diego, Calif., USA). These cells were originally designed for studying the stimulation of human TLR8 by monitoring the activation of NF-κB. A SEAP (secreted embryonic alkaline phosphatase) reporter gene was placed under the control of the IFN-β minimal promoter fused to five NF-κB and AP-1-binding sites. The SEAP was induced by activating NF-κB and AP-1 via stimulating HEK-Blue hTLR8 cells with TLR8 ligands. Therefore the reporter expression was declined by TLR8 antagonist under the stimulation of a ligand, such as R848, for incubation of 20 hrs. The cell culture supernatant SEAP reporter activity was determined using QUANTI-Blue™ kit (Cat #. rep-qbl, Invivogen, San Diego, Calif., USA) at a wavelength of 640 nm, a detection medium that turns purple or blue in the presence of alkaline phosphatase.
HEK293-Blue-hTLR8 cells were incubated at a density of 250,000˜450,000 cells/mL in a volume of 170 μL in a 96-well plate in Dulbecco's Modified Eagle's medium (DMEM) containing 4.5 g/L glucose, 50 U/mL penicillin, […], […], 2 mM L-glutamine, 10% (v/v) heat-inactivated fetal bovine serum with addition of 20 μL test compound in a serial dilution in the presence of final DMSO at 1% and 10 μL of 60 μM R848 in above DMEM, perform incubation under 37° C. in a CO2 incubator for 20 hrs. Then 20 μL of the supernatant from each well was incubated with 180 μL Quanti-blue substrate solution at 37° C. for 2 hrs and the absorbance was read at 620˜655 nm using a spectrophotometer. The signalling pathway that TLR8 activation leads to downstream NF-KB activation has been widely accepted, and therefore similar reporter assay was modified for evaluating TLR8 antagonist.

Compound: C[C@@H]1CN(c2ccc(C(F)(F)F)c3ncccc23)C[C@H](C(=O)NCC2CNCCO2)O1 (stereo partly drawn) [Example 48, (2R,6R)-6-methyl-N-(morpholin-2-ylmethyl)-4-[8-(trifluoromethyl)-5-quinolyl]morpholine-2-carboxamide]
- pIC50: > 8.52
